According to the CheMixHub viscosity set:

How the values were obtained:
[1] = 101 kPa
[2] = xn = mol fraction of the nth substance listed

Nc1cccc(Cl)c1Cl
Conditions | viscosity [mPa·s]
[1], 313.15 K | 3.74

CC(C)N
Conditions | viscosity [mPa·s]
[1], 298.15 K | 0.278

O=C1CCCO1 + CCOC(C)=O
[2], 298.15 K, 101.33 kPa
Conditions | viscosity [mPa·s]
x2 = 0.0501 | 1.575
x2 = 0.1023 | 1.453
x2 = 0.1528 | 1.345
x2 = 0.2005 | 1.249
x2 = 0.2542 | 1.152
x2 = 0.3039 | 1.071
x2 = 0.4046 | 0.926
x2 = 0.4546 | 0.864
x2 = 0.5006 | 0.81
x2 = 0.5528 | 0.755
x2 = 0.6019 | 0.707
x2 = 0.6994 | 0.622
x2 = 0.75 | 0.583
x2 = 0.7981 | 0.547
x2 = 0.849 | 0.513
x2 = 0.902 | 0.481
x2 = 0.9504 | 0.45

Brc1ccccc1 + CCCCCO
[2], 293.15 K, 101.33 kPa
Conditions | viscosity [mPa·s]
x2 = 0.0631 | 1.14
x2 = 0.1715 | 1.212
x2 = 0.2092 | 1.252
x2 = 0.2807 | 1.335
x2 = 0.3259 | 1.398
x2 = 0.3831 | 1.512
x2 = 0.4182 | 1.57
x2 = 0.4909 | 1.716
x2 = 0.5969 | 2.011
x2 = 0.6886 | 2.346
x2 = 0.7544 | 2.636
x2 = 0.8796 | 3.294

O=C[C@H](O)[C@@H](O)[C@H](O)CO + C[N+](C)(C)CCO.[Cl-]
viscosity [mPa·s], [2]
Conditions | x2 = 0.5 | x2 = 0.6 | x2 = 0.667
303 K, 101 kPa | 34000 | – | –
313 K, 101 kPa | 11900 | – | –
313.2 K, 100 kPa | 855.5 | 1450 | 3450
318.2 K, 100 kPa | 565.8 | 886.5 | 1886
323 K, 101 kPa | 4740 | – | –

Cc1ncc[nH]1 + O
viscosity [mPa·s], [2], 100 kPa
Conditions | x1 = 0.0238 | x1 = 0.0373 | x1 = 0.052 | x1 = 0.0682 | x1 = 0.086
298.15 K | 1.151 | 1.312 | 1.494 | 1.718 | 1.971
303.15 K | 1.02 | 1.16 | 1.315 | 1.498 | 1.707
313.15 K | 0.838 | 0.933 | 1.07 | 1.214 | 1.379
323.15 K | 0.696 | 0.767 | 0.87 | 0.978 | 1.1

Brc1ccccc1 + CN(C)C=O
viscosity [mPa·s], [2], 101.33 kPa
Conditions | x2 = 0.0879 | x2 = 0.2075 | x2 = 0.3085 | x2 = 0.4055 | x2 = 0.5063 | x2 = 0.6027 | x2 = 0.6877 | x2 = 0.8054 | x2 = 0.9001 | x2 = 0.9002
303.15 K | 0.982 | 0.973 | 0.963 | 0.949 | 0.931 | 0.905 | 0.879 | 0.831 | – | 0.789
313.15 K | 0.889 | 0.879 | 0.87 | 0.854 | 0.838 | 0.816 | 0.792 | 0.749 | 0.711 | –

C1=C[C@H]2[C@@H](C1)[C@H]1C=C[C@@H]2C1 + CC1CCCCC1
viscosity [mPa·s], [2], 101.2 kPa
Conditions | x1 = 0.0987 | x1 = 0.2012 | x1 = 0.3023 | x1 = 0.4007 | x1 = 0.5024 | x1 = 0.6001 | x1 = 0.6994 | x1 = 0.8017 | x1 = 0.9021
293.15 K | 0.8197 | 0.9187 | 1.043 | 1.198 | 1.398 | 1.646 | 2.032 | 2.607 | 3.386
298.15 K | 0.7605 | 0.8517 | 0.9677 | 1.1 | 1.28 | 1.504 | 1.855 | 2.367 | 3.029
303.15 K | 0.7145 | 0.791 | 0.8907 | 1.011 | 1.178 | 1.387 | 1.693 | 2.156 | 2.723
308.15 K | 0.6717 | 0.7439 | 0.8387 | 0.9497 | 1.109 | 1.306 | 1.586 | 1.993 | 2.477
313.15 K | 0.6316 | 0.7051 | 0.7996 | 0.9101 | 1.05 | 1.226 | 1.473 | 1.819 | 2.259
318.15 K | 0.5952 | 0.6697 | 0.7496 | 0.8519 | 0.9802 | 1.138 | 1.359 | 1.668 | 2.059

C1COCCO1 + CCCCCCCC
viscosity [mPa·s], [2], 101 kPa
Conditions | x1 = 0.1324 | x1 = 0.2242 | x1 = 0.3234 | x1 = 0.4124 | x1 = 0.5114 | x1 = 0.6124 | x1 = 0.7332 | x1 = 0.8231 | x1 = 0.9222
308.15 K | 0.453 | 0.462 | 0.478 | 0.503 | 0.542 | 0.596 | 0.68 | 0.766 | 0.881
313.15 K | 0.431 | 0.44 | 0.452 | 0.476 | 0.512 | 0.561 | 0.64 | 0.717 | 0.828
318.15 K | 0.41 | 0.417 | 0.429 | 0.45 | 0.484 | 0.529 | 0.601 | 0.672 | 0.776

O=C1CCCCO1 + CNC(C)=O
viscosity [mPa·s], [2], 101 kPa
Conditions | x2 = 0.0818 | x2 = 0.2377 | x2 = 0.3396 | x2 = 0.4641 | x2 = 0.5194 | x2 = 0.717 | x2 = 0.7962 | x2 = 0.8929 | x2 = 0.9596
303.15 K | 2.648 | 2.494 | 2.393 | 2.352 | 2.389 | 2.607 | 2.782 | 3.108 | 3.512
308.15 K | 2.412 | 2.288 | 2.199 | 2.203 | 2.222 | 2.422 | 2.583 | 2.896 | 3.125
313.15 K | 2.204 | 2.101 | 2.06 | 2.021 | 2.023 | 2.165 | 2.304 | 2.559 | 2.765
318.15 K | 2.02 | 1.916 | 1.862 | 1.843 | 1.862 | 1.994 | 2.111 | 2.3 | 2.491

FB(F)F + CCOc1ccccc1
viscosity [mPa·s], [2], 101 kPa
Conditions | 293.15 K | 298.15 K | 303.15 K
x1 = 0.00901 | 1.29 | 1.18 | 1.08
x1 = 0.1455 | 1.53 | 1.39 | 1.27
x1 = 0.2874 | 2.42 | 2.17 | 1.96
x1 = 0.3269 | 2.79 | 2.51 | 2.25
x1 = 0.3742 | 3.38 | 3.01 | 2.68
x1 = 0.3817 | 3.48 | 3.1 | 2.74
x1 = 0.4143 | 4 | 3.52 | 3.08
x1 = 0.4429 | 4.57 | 3.97 | 3.5
x1 = 0.456 | 4.87 | 4.24 | 3.7
x1 = 0.4744 | 5.39 | 4.69 | 4.06
x1 = 0.4962 | 6.02 | 5.19 | 4.48

C1COCCO1 + c1ccccc1
[2], 303.15 K, 101 kPa
Conditions | viscosity [mPa·s]
x1 = 0.1009 | 0.603
x1 = 0.104 | 0.599
x1 = 0.207 | 0.644
x1 = 0.3017 | 0.687
x1 = 0.309 | 0.686
x1 = 0.4005 | 0.736
x1 = 0.411 | 0.733
x1 = 0.4969 | 0.787
x1 = 0.511 | 0.779
x1 = 0.6 | 0.841
x1 = 0.61 | 0.828
x1 = 0.7019 | 0.895
x1 = 0.709 | 0.882
x1 = 0.8015 | 0.961
x1 = 0.807 | 0.937
x1 = 0.904 | 0.991

Brc1ccccc1 + Cc1ccccc1C
[2], 101 kPa
Conditions | viscosity [mPa·s]
293.15 K, x1 = 0.114 | 0.795
293.15 K, x1 = 0.2198 | 0.827
293.15 K, x1 = 0.3257 | 0.862
293.15 K, x1 = 0.4383 | 0.893
293.15 K, x1 = 0.542 | 0.931
293.15 K, x1 = 0.6615 | 0.962
293.15 K, x1 = 0.7764 | 1
293.15 K, x1 = 0.882 | 1.035
298.15 K, x1 = 0.1101 | 0.728
298.15 K, x1 = 0.2223 | 0.765
298.15 K, x1 = 0.3227 | 0.795
298.15 K, x1 = 0.4226 | 0.826
298.15 K, x1 = 0.5207 | 0.863
298.15 K, x1 = 0.6643 | 0.9
298.15 K, x1 = 0.772 | 0.938
298.15 K, x1 = 0.8925 | 0.969
303.15 K, x1 = 0.117 | 0.667
303.15 K, x1 = 0.2219 | 0.701
303.15 K, x1 = 0.3366 | 0.734
303.15 K, x1 = 0.4539 | 0.77
303.15 K, x1 = 0.5398 | 0.8
303.15 K, x1 = 0.6572 | 0.834
303.15 K, x1 = 0.7877 | 0.876
303.15 K, x1 = 0.9122 | 0.91

C1COCCO1 + CC#N
viscosity [mPa·s], [2], 101 kPa
Conditions | x2 = 0.1926 | x2 = 0.3492 | x2 = 0.4791 | x2 = 0.5886 | x2 = 0.6822 | x2 = 0.763 | x2 = 0.8336 | x2 = 0.8957 | x2 = 0.9508
298.15 K | 0.9468 | 0.772 | 0.6349 | 0.5315 | 0.4573 | 0.4099 | 0.3679 | 0.3482 | 0.3389
308.15 K | 0.8244 | 0.6862 | 0.5802 | 0.503 | 0.4477 | 0.4079 | 0.3775 | 0.3531 | 0.334
318.15 K | 0.7189 | 0.5994 | 0.5014 | 0.4305 | 0.3854 | 0.3542 | 0.3354 | 0.3194 | 0.3076

OCC(F)(F)F + O=C1CCCN1
viscosity [mPa·s], [2], 101 kPa
Conditions | x1 = 0.3 | x1 = 0.4 | x1 = 0.5 | x1 = 0.6 | x1 = 0.7 | x1 = 0.8 | x1 = 0.9
293.15 K | 9.082 | 6.392 | 4.918 | 3.907 | 3.208 | 2.768 | 2.477
303.15 K | 6.16 | 4.724 | 3.801 | 3.071 | 2.519 | 2.146 | 1.882
313.15 K | 4.448 | 3.625 | 3.008 | 2.458 | 2.015 | 1.705 | 1.478
323.15 K | 3.389 | 2.875 | 2.431 | 1.999 | 1.64 | 1.384 | 1.194
